Measurements: patent EP0085842A1, “Antimycosic agents” (BAYER AG, priority 1982, dated 1983)
In brackets after ≈: the same amount, converted by molar mass.

Assays:
[1] = tested on: Trichophyton mentagr.; assay: Antimycotic in-vitro activity, serial dilution test (MIC); type: cell-based, Trichophyton mentagrophytes; conditions: Sabouraud's milieu d'epreuve, 20°C, 96 h, inoculum 5 x 10^4 Keime/ml, read-out: MHK-Werte in γ/ml Nährmedium Trichophyton mentagr.
Method: (§1) Versuchsbeschreibung: • Die in-vitro-Prüfungen wurden im Reihenverdünnungstest mit Keiminokula von durchschnittlich 5 x 10^4 Keimen/ml Substrat durchgeführt. Als Nährmedium dienten • a) für Dermatophyten und Schimmelpilze: Sabouraud's milieu d'epreuve • b) für Hefen: • Fleischextrakt-Traubenzucker-Bouillon.
(§2) Die Bebrütungstemperatur betrug 20°C, die Bebrütungsdauer lag bei 24 bis 96 Stunden bei Hefen und 96 Stunden bei Dermatophyten und Schimmelpilzen.

[2] = tested on: Aspergillus fumigatus; assay: as above; type: cell-based; conditions: Sabouraud's milieu d'epreuve, 20°C, 96 h, inoculum 5 x 10^4 Keime/ml, read-out: MHK-Werte in γ/ml Nährmedium Aspergillus fumigatus
Method: as §1, §2

[3] = tested on: Candida albicans; assay: as above; type: cell-based; conditions: Fleischextrakt-Traubenzucker-Bouillon, 20°C, 24 to 96 h, inoculum 5 x 10^4 Keime/ml, read-out: MHK-Werte in γ/ml Nährmedium Candida albicans
Method: as §1, §2

[4] = tested on: Microsporum canis; assay: as above; type: cell-based; conditions: Sabouraud's milieu d'epreuve, 20°C, 96 h, inoculum 5 x 10^4 Keime/ml, read-out: MHK-Werte in γ/ml Nährmedium Microsporum canis
Method: as §1, §2

[5] = tested on: Torulopsis glabrata; assay: as above; type: cell-based; conditions: Nakaseomyces glabratus; Fleischextrakt-Traubenzucker-Bouillon, 20°C, 24 to 96 h, inoculum 5 x 10^4 Keime/ml; read-out: MHK-Werte in γ/ml Nährmedium Torulopsis glabrata
Method: as §1, §2

[6] = tested on: Candida-Zellen; assay: Antimycotic in-vivo activity (oral) in mouse candidosis; design: species or system Mäuse vom Typ SPF-CF1; key to Wirkung: +++++: sehr gute Wirkung = 90 % Überlebende am 6.Tag p.i.; ++++: gute Wirkung = 80 % Überlebende am 6.Tag p.i.; +++: Wirkung = 60 % Überlebende am 6.Tag p.i.; ++: schwache Wirkung = 40 % Überlebende am 6.Tag p.i.; +: Spur Wirkung = unter 40 % Überlebende am 6.Tag p.i.; k.W.: keine Wirkung; conditions: for Wirkung: mice infected i.v. with Candida, oral 50 - 100 mg/kg one hour before and seven hours after infection, survivors on day 6 p.i.; for Wirkung compared with known compounds (A), (B), (C) and (D): mouse candidosis, oral 50 - 100 mg/kg
Method: Mäuse vom Typ SPF-CF1 wurden intravenös mit 1 - 2 x 10^6 logarithmisch wachsenden Candida-Zellen, die in physiologischer Kochsalzlösung suspendiert werden, infiziert. Eine Stunde vor und sieben Sunden nach der Infektion werden die Tiere mit jeweils 50 - 100 mg/kg Körpergewicht der Präparate oral behandelt.
Unbehandelte Tiere starben 3 bis 6 Tage post infektionem. Die Überlebensrate am 6. Tag post infektionem betrug bei unbehandelten Kontrolltieren etwa 5 %.
+++++ = sehr gute Wirkung = 90 % Überlebende am 6.Tag p.i. ++++ = gute Wirkung = 80 % Überlebende am 6.Tag p.i. +++ = Wirkung = 60 % Überlebende am 6.Tag p.i. ++ = schwache Wirkung = 40 % Überlebende am 6.Tag p.i. + = Spur Wirkung = unter 40 % Überlebende am 6.Tag p.i. k.W. = keine Wirkung

| SMILES | MIC [1] [µg/mL] | MIC [2] [µg/mL] | MIC [3] [µg/mL] | MIC [4] [µg/mL] | MIC [5] [µg/mL] | Wirkung [6] | Wirkung compared with known compounds (A), (B), (C) and (D) [6] |
| --- | --- | --- | --- | --- | --- | --- | --- |
| CC(C)(C)C(O)(COc1ccc(Cl)cc1)Cn1ccnc1 (centres unmarked) [(A), reference compound] | 8 (≈ 25.9 µM) | 32 (≈ 104 µM) | < 1 | 16 (≈ 51.8 µM) | 2 (≈ 6.48 µM) | k.W. |  |
| Cc1ccccc1OCC(O)(Cn1cncn1)C(C)(C)C (centres unmarked) [(B), reference compound] | 4 (≈ 13.8 µM) | 32 (≈ 111 µM) | 32 (≈ 111 µM) | 4 (≈ 13.8 µM) | > 64 | k.W. |  |
| Cc1ccccc1OCC(O)(Cn1ccnc1)C(C)(C)C (centres unmarked) [(C), reference compound] | 32 (≈ 111 µM) | > 64 | 32 (≈ 111 µM) |  | > 64 | k.W. |  |
| Cc1ccccc1CCC(O)(Cn1ccnc1)C(C)(C)C (centres unmarked) [(D), reference compound] | 8 (≈ 27.9 µM) | 64 (≈ 223 µM) | 2 (≈ 6.98 µM) | 16 (≈ 55.9 µM) | 16 (≈ 55.9 µM) | k.W. |  |
| COCC(C)(C)C(O)(COc1ccc(Cl)cc1)Cn1cncn1 (centres unmarked) [Beispiel 2] | 2 (≈ 5.89 µM) | 8 (≈ 23.5 µM) | < 1 | 4 (≈ 11.8 µM) | 8 (≈ 23.5 µM) |  |  |
| CC(C)(C)C(O)(CSc1ccc(Cl)cc1)Cn1cncn1 (centres unmarked) [Beispiel 3, 2-(4-Chlorphenylthiomethyl)-3,3-dimethyl-1-(1,2,4-triazol-1-yl)-butan-2-ol] | < 1 | < 1 | < 1 | < 1 | 2 (≈ 6.14 µM) | ++++ (gute Wirkung = 80 % Überlebende am 6.Tag p.i.) | bessere Wirkung |
| C=CC(C)(C)C(O)(COc1ccc(-c2ccccc2)cc1)Cn1cncn1 (centres unmarked) [Beispiel 4, 4-(4-Biphenylyloxymethyl)-3,3-dimethyl-4-hydroxy-5-(1,2,4-triazol-1-yl)-1-penten] | < 1 | < 1 | < 1 | < 1 | 32 (≈ 88 µM) | +++++ (sehr gute Wirkung = 90 % Überlebende am 6.Tag p.i.) | bessere Wirkung |
| Cc1ccc(OCC(O)(Cn2cncn2)C(C)(C)CF)cc1 (centres unmarked) [Beispiel 6] | 2 (≈ 6.51 µM) | 2 (≈ 6.51 µM) | < 1 | 4 (≈ 13 µM) | 4 (≈ 13 µM) |  |  |
| CC(C)(CF)C(O)(CSc1ccccc1Cl)Cn1cncn1 (centres unmarked) [Beispiel 11] | 2 (≈ 5.82 µM) | 8 (≈ 23.3 µM) | < 1 | 4 (≈ 11.6 µM) | 16 (≈ 46.5 µM) |  |  |
| CC(C)(CF)C(O)(CSc1ccc(Cl)c(Cl)c1)Cn1cncn1 (centres unmarked) [Beispiel 12] | < 1 | < 1 | < 1 | 2 (≈ 5.29 µM) | < 1 | ++++ (gute Wirkung = 80 % Überlebende am 6.Tag p.i.) | bessere Wirkung |
| COCC(C)(C)C(O)(COc1ccc(Cl)cc1Cl)Cn1cncn1 (centres unmarked) [Beispiel 16] | < 1 | 8 (≈ 21.4 µM) | < 1 | 2 (≈ 5.34 µM) | 2 (≈ 5.34 µM) |  |  |
| COCC(C)(C)C(O)(COc1ccc(Cl)cc1C)Cn1cncn1 (centres unmarked) [Beispiel 17] | < 1 | 4 (≈ 11.3 µM) | < 1 | < 1 | 4 (≈ 11.3 µM) |  |  |
| CCOCC(C)(C)C(O)(COc1ccc(Cl)cc1)Cn1cncn1 (centres unmarked) [Beispiel 18] | < 1 | 4 (≈ 11.3 µM) | < 1 | 4 (≈ 11.3 µM) | 4 (≈ 11.3 µM) |  |  |
| CC(C)(COc1ccc(Cl)cc1)C(O)(COc1ccc(Cl)cc1)Cn1cncn1 (centres unmarked) [Beispiel 19] | < 1 | < 1 | 8 (≈ 18.3 µM) | 2 (≈ 4.58 µM) | 2 (≈ 4.58 µM) |  |  |
| COCC(C)(C)C(O)(COc1ccc(F)cc1)Cn1cncn1 (centres unmarked) [Beispiel 20] | 2 (≈ 6.18 µM) | 32 (≈ 99 µM) | < 1 | 8 (≈ 24.7 µM) | 2 (≈ 6.18 µM) |  |  |
| C=CC(C)(C)C(O)(COc1ccc(Cl)cc1Cl)Cn1cncn1 (centres unmarked) [Beispiel 23] | < 1 | 4 (≈ 11.2 µM) | < 1 | 8 (≈ 22.5 µM) | 4 (≈ 11.2 µM) | + (Spur Wirkung = unter 40 % Überlebende am 6.Tag p.i.) | bessere Wirkung |
| C=CC(C)(C)C(O)(COc1ccc(F)cc1)Cn1cncn1 (centres unmarked) [Beispiel 24] | < 1 | 4 (≈ 13.1 µM) | 4 (≈ 13.1 µM) | 8 (≈ 26.2 µM) | 8 (≈ 26.2 µM) | ++ (schwache Wirkung = 40 % Überlebende am 6.Tag p.i.) | bessere Wirkung |
| CC(C)(COc1ccc(Cl)cc1)C(O)(CCc1ccc(Cl)cc1)Cn1cncn1 (centres unmarked) [Beispiel 29] | < 1 | < 1 | 16 (≈ 36.8 µM) | 2 (≈ 4.6 µM) | 2 (≈ 4.6 µM) |  |  |
| CC(C)(Oc1ccc(Cl)cc1Cl)C(O)(CCc1ccc(Cl)cc1)Cn1cncn1 (centres unmarked) [Beispiel 30] | < 1 | 4 (≈ 8.8 µM) | 16 (≈ 35.2 µM) | 64 (≈ 141 µM) | 8 (≈ 17.6 µM) |  |  |
| CC(C)(Oc1ccc(Cl)cc1)C(O)(CCc1ccc(Cl)cc1)Cn1ccnc1 (centres unmarked) [Beispiel 34] | < 1 | < 1 | < 1 | < 1 | < 1 |  |  |
| CC(C)(COc1ccc(Cl)cc1Cl)C(O)(CCc1ccc(Cl)cc1)Cn1ccnc1 (centres unmarked) [Beispiel 35] | < 1 | < 1 | 4 (≈ 8.55 µM) | < 1 | < 1 |  |  |
| CC(CF)(CF)C(O)(CCc1ccc(Cl)cc1Cl)Cn1ccnc1 (centres unmarked) [Beispiel 36] | 2 (≈ 5.3 µM) | 8 (≈ 21.2 µM) | < 1 | 4 (≈ 10.6 µM) | 4 (≈ 10.6 µM) | ++++ (gute Wirkung = 80 % Überlebende am 6.Tag p.i.) | bessere Wirkung |
| CC(CF)(CF)C(O)(CCc1ccc(Cl)cc1)Cn1ccnc1 (centres unmarked) [Beispiel 37] | 4 (≈ 11.7 µM) | 2 (≈ 5.83 µM) | 4 (≈ 11.7 µM) | 16 (≈ 46.7 µM) | 2 (≈ 5.83 µM) | ++++ (gute Wirkung = 80 % Überlebende am 6.Tag p.i.) | bessere Wirkung |
| C=CC(C)(C)C(O)(COc1ccc(F)cc1)Cn1ccnc1 (centres unmarked) [Beispiel 40] |  |  |  |  |  | ++ (schwache Wirkung = 40 % Überlebende am 6.Tag p.i.) | bessere Wirkung |
